Data taken from ChEMBL document CHEMBL1201862, “PubChem BioAssay data set” (2004).
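Assay format: 96-well plates, 48-hour exposure. GI50 is the concentration that inhibits growth by half.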 Active and inactive are the calls of the source. Cut-off read from the data, not from the text of the source: active = GI50 up to about 1.1 µM and inactive = higher.

What was measured:
Assay in all cases: NCI tumour cell line growth inhibition, 48 h
HOP-92 = system: HOP-92
SF-295 = system: SF-295
UACC-62 = system: UACC-62
COLO 205 = system: COLO 205
HL-60 = system: HL-60
Hs-578T = system: Hs-578T
NCI/ADR-RES = system: NCI/ADR-RES
HT-29 = system: HT-29
A498 = system: A498
HCT-15 = system: HCT-15
SR = system: SR
HCT-116 = system: HCT-116
MOLT-4 = system: MOLT-4
PC-3 = system: PC-3
DU-145 = system: DU-145
SK-MEL-28 = system: SK-MEL-28
NCI-H522 = system: NCI-H522
SK-OV-3 = system: SK-OV-3
CAKI-1 = system: CAKI-1
SN12C = system: SN12C
KM12 = system: KM12
U-251 = system: U-251
IGROV-1 = system: IGROV-1
T47D = system: T47D
M14 = system: M14
OVCAR-3 = system: OVCAR-3
SNB-75 = system: SNB-75
MDA-MB-231 = system: MDA-MB-231
NCI-H460 = system: NCI-H460
HOP-62 = system: HOP-62
RPMI-8226 = system: RPMI-8226
SK-MEL-5 = system: SK-MEL-5
CCRF-CEM = system: CCRF-CEM
NCI-H23 = system: NCI-H23
Malme-3M = system: Malme-3M
K562 = system: K562
OVCAR-8 = system: OVCAR-8
MDA-MB-435 = system: MDA-MB-435
SK-MEL-2 = system: SK-MEL-2
MDA-N = system: MDA-N
EKVX = system: EKVX
MCF7 = system: MCF7
UO-31 = system: UO-31
TK-10 = system: TK-10
UACC-257 = system: UACC-257
HCC 2998 = system: HCC 2998
OVCAR-5 = system: OVCAR-5
SW-620 = system: SW-620
786-0 = system: 786-0
SNB-19 = system: SNB-19
RXF 393 = system: RXF 393
A549 = system: A549
LOX IMVI = system: LOX IMVI
ACHN = system: ACHN
NCI-H226 = system: NCI-H226
SF-268 = system: SF-268
OVCAR-4 = system: OVCAR-4

## C1=C(N2CCOCC2)/C(=C2\SC(=N/c3ccccc3)/C(=N\c3ccccc3)N2c2ccccc2)CC1
HOP-92
  GI50: 34.8 µM (inactive)
SF-295
  GI50: 49.2 µM (inactive)
UACC-62
  GI50: 18.7 µM (inactive)
COLO 205
  GI50: > 100 µM (inactive)
HL-60
  GI50: > 10 µM (inactive)
Hs-578T
  GI50: 26.8 µM (inactive)
NCI/ADR-RES
  GI50: > 100 µM (inactive)
HT-29
  GI50: > 100 µM (inactive)
A498
  GI50: 94.4 µM (inactive)
HCT-15
  GI50: > 100 µM
SR
  GI50: 67.5 µM (inactive)
HCT-116
  GI50: > 100 µM (inactive)
MOLT-4
  GI50: 20.9 µM (inactive)
PC-3
  GI50: > 100 µM (inactive)
DU-145
  GI50: > 100 µM (inactive)
SK-MEL-28
  GI50: 75.2 µM (inactive)
NCI-H522
  GI50: 29 µM (inactive)
SK-OV-3
  GI50: 34.1 µM (inactive)
CAKI-1
  GI50: 51.8 µM (inactive)
SN12C
  GI50: > 100 µM (inactive)
KM12
  GI50: > 100 µM (inactive)
U-251
  GI50: 68.4 µM (inactive)
IGROV-1
  GI50: > 100 µM (inactive)
T47D
  GI50: > 100 µM (inactive)
M14
  GI50: 38.2 µM (inactive)
OVCAR-3
  GI50: 52.4 µM (inactive)
SNB-75
  GI50: 23.1 µM (inactive)
MDA-MB-231
  GI50: 61.5 µM (inactive)
NCI-H460
  GI50: > 100 µM (inactive)
HOP-62
  GI50: 28.9 µM (inactive)
RPMI-8226
  GI50: > 100 µM (inactive)
SK-MEL-5
  GI50: > 100 µM (inactive)
CCRF-CEM
  GI50: 19.7 µM (inactive)
NCI-H23
  GI50: > 100 µM (inactive)
Malme-3M
  GI50: > 100 µM (inactive)
K562
  GI50: > 100 µM (inactive)
OVCAR-8
  GI50: 62.5 µM (inactive)
MDA-MB-435
  GI50: > 100 µM (inactive)
SK-MEL-2
  GI50: 89.3 µM (inactive)
MDA-N
  GI50: > 100 µM (inactive)

## NS(=O)(=O)c1ccc(/C=C/c2ccc(O)c(O)c2)cc1
SF-295
  GI50: 29.8 µM (inactive)
EKVX
  GI50: 21.2 µM (inactive)
COLO 205
  GI50: 21.2 µM (inactive)
NCI/ADR-RES
  GI50: 23.1 µM (inactive)
MCF7
  GI50: 20.8 µM (inactive)
A498
  GI50: 54.3 µM (inactive)
HCT-116
  GI50: 25.5 µM (inactive)
UO-31
  GI50: 12.3 µM (inactive)
PC-3
  GI50: 19.1 µM (inactive)
DU-145
  GI50: 68.7 µM (inactive)
SK-MEL-28
  GI50: 23.2 µM (inactive)
TK-10
  GI50: 60.7 µM (inactive)
SK-OV-3
  GI50: 17.3 µM (inactive)
SN12C
  GI50: 18.7 µM (inactive)
UACC-257
  GI50: 61.5 µM (inactive)
T47D
  GI50: 14.5 µM (inactive)
HCC 2998
  GI50: 18.7 µM (inactive)
M14
  GI50: 26.5 µM (inactive)
OVCAR-3
  GI50: 31.6 µM (inactive)
SNB-75
  GI50: 20.4 µM (inactive)
OVCAR-5
  GI50: 31.6 µM (inactive)
MDA-MB-231
  GI50: 19.6 µM (inactive)
NCI-H460
  GI50: 27.3 µM (inactive)
HOP-62
  GI50: 47.2 µM (inactive)
SK-MEL-5
  GI50: 10.8 µM (inactive)
SW-620
  GI50: 22 µM (inactive)
Malme-3M
  GI50: 35.3 µM (inactive)
786-0
  GI50: 34.7 µM (inactive)
SK-MEL-2
  GI50: 22.5 µM (inactive)
SNB-19
  GI50: 34.4 µM (inactive)
RXF 393
  GI50: 69.3 µM (inactive)
MDA-N
  GI50: 18.3 µM (inactive)

## O=C1/C(=C/c2ccccc2)NC(=S)N1CN1CCCCC1
HOP-92
  GI50: > 100 µM (inactive)
SF-295
  GI50: > 100 µM (inactive)
EKVX
  GI50: > 100 µM (inactive)
UACC-62
  GI50: > 100 µM (inactive)
COLO 205
  GI50: > 100 µM (inactive)
Hs-578T
  GI50: > 100 µM (inactive)
NCI/ADR-RES
  GI50: > 100 µM (inactive)
HT-29
  GI50: > 100 µM (inactive)
MCF7
  GI50: > 100 µM (inactive)
A498
  GI50: 99.5 µM (inactive)
HCT-15
  GI50: > 100 µM
SR
  GI50: > 100 µM (inactive)
HCT-116
  GI50: > 100 µM (inactive)
MOLT-4
  GI50: > 100 µM (inactive)
UO-31
  GI50: > 100 µM (inactive)
PC-3
  GI50: > 100 µM (inactive)
DU-145
  GI50: > 100 µM (inactive)
SK-MEL-28
  GI50: > 100 µM (inactive)
A549
  GI50: > 100 µM (inactive)
LOX IMVI
  GI50: > 100 µM (inactive)
SK-OV-3
  GI50: > 100 µM (inactive)
SN12C
  GI50: > 100 µM (inactive)
KM12
  GI50: > 100 µM (inactive)
ACHN
  GI50: > 100 µM (inactive)
U-251
  GI50: > 100 µM (inactive)
UACC-257
  GI50: 16.3 µM (inactive)
IGROV-1
  GI50: > 100 µM (inactive)
M14
  GI50: > 100 µM (inactive)
OVCAR-3
  GI50: > 100 µM (inactive)
SNB-75
  GI50: > 100 µM (inactive)
OVCAR-5
  GI50: > 100 µM (inactive)
MDA-MB-231
  GI50: > 100 µM (inactive)
HOP-62
  GI50: > 100 µM (inactive)
RPMI-8226
  GI50: > 100 µM (inactive)
SK-MEL-5
  GI50: > 100 µM (inactive)
CCRF-CEM
  GI50: > 100 µM (inactive)
NCI-H23
  GI50: > 100 µM (inactive)
SW-620
  GI50: > 100 µM (inactive)
K562
  GI50: > 100 µM (inactive)
NCI-H226
  GI50: > 100 µM (inactive)
OVCAR-8
  GI50: > 100 µM (inactive)
MDA-MB-435
  GI50: > 100 µM (inactive)
786-0
  GI50: > 100 µM (inactive)
SF-268
  GI50: > 100 µM (inactive)
OVCAR-4
  GI50: 15 µM (inactive)
SK-MEL-2
  GI50: > 100 µM (inactive)
SNB-19
  GI50: > 100 µM (inactive)
MDA-N
  GI50: > 100 µM (inactive)
